In data set [1] the test system is human tumor cell extracts. Description: Release of folate from esters by human tumor cell extracts. It counts as in vitro ADME. The conditions noted are these: 200 μM ester, 2 mg lysate protein, pH 7.4, 37° C. The procedure: Cells are trypsinized, washed with Hank's balanced salt solution, counted and pelleted. On ice, the cell pellets are resuspended in 50 mM sodium phosphate, 5 mM DTT, pH 7.4 at a concentration of 10^8 cells/ml and disrupted by sonication. The sonicated cells are centrifuged at 12,000×g for 10 min and the supernatant is removed. Complete mini protease inhibitor (Roche, Mannheim Germany) is added as directed by the supplier. Lysate total protein concentration is determined, and the lysates are frozen until used at −20° C. Reactions (600 μL), containing one of the ester substrates (200 μM) and 2 mg of lysate protein in 50 mM phosphate buffer (pH 7.4) are incubated at 37° C. At various times 50 μL, are removed for analysis by HPLC. The amount of folic acid liberated is used to determine the extent of ester hydrolysis.
The rate of release of folate is about 2.2% per day from 1; 3.2% per day from 2; and 0.9% per day from 3. […] The extent of conversion to folate by human tumor cell extracts can vary slightly according to the cell type with MCF-7 cells showing the highest rate of conversion.

A short description of data set [2]: Release of folate on incubation in neutral solution (ester stability). The conditions noted are these: incubated in neutral solution. It counts as physicochemical.
For data set [3], the target named is T1, human alkyltransferase (Homo sapiens, UniProt P16455).
T1 sequence (P16455 1-207): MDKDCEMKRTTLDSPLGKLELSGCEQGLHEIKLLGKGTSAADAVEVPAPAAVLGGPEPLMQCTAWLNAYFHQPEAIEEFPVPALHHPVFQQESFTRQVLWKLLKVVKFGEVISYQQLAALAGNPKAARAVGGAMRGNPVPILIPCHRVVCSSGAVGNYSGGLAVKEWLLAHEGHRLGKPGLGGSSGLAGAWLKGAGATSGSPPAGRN
Description: Inactivation of purified recombinant human alkyltransferase in vitro. The class given is biochemical. The conditions noted are these: for inactivation of alkyltransferase compared with parent compound: comparison in words. The procedure: ED50 values for the inactivation of purified human alkyltransferase in vitro are obtained as previously described (Nelson et al., J. Med. Chem. 2004, 47, 3887-3891 and Pegg et al., Biochem. Pharmacol. 1997, 53, 1559-1564). Purified recombinant human alkyltransferase is incubated with different concentrations of prodrugs in 0.5 mL of reaction buffer (50 mM Tris-HCl, pH 7.6, 0.1 mM EDTA, 5.0 mM dithiothreitol) containing 50 μg of hemocyanin or 10 μg calf thymus DNA for 30 min at 37° C.

For data set [4], the system named is HT29 cells. The experiment in a line: Sensitization of HT29 cells to killing by BCNU, colony-forming assay. The class given is cell-based. Particulars: RPMI medium, drug 2 h prior to 40 μM BCNU for 2 h. On the procedure:
KB, HT29 and A549 cells are grown in RPMI 1640 medium or in RPMI medium lacking folate in the presence of 10% fetal bovine serum. The effect of alkyltransferase inactivators on the sensitivity of cells to BCNU is determined using a colony-forming assay (Wei et al., J. Med. Chem. 2005, 48, 256-261; Nelson et al., J. Med. Chem. 2004, 47, 3887-3891; Chae et al., J. Med. Chem. 1994, 37, 342-347; and Dolan et al., Proc. Natl. Acad. Sci. U.S.A. 1990, 87, 5368-5372). Cells are plated at a density of 10^6 in 25 cm^2 flasks and 24 h later are incubated with different concentrations of potential inhibitors for 2-8 h as indicated before exposure to 20 or 40 μM BCNU for 2 h as previously described (Wei et al., J. Med. Chem. 2005, 48, 256-261; Nelson et al., J. Med. Chem. 2004, 47, 3887-3891). After 2 h, the medium is replaced with fresh medium containing the drug but no BCNU and the cells are left to grow for an additional 16-18 h. The cells are then replated at densities of 250-1000 cells per 25 cm^2 flask and grown for 8 days until discrete colonies have formed. The colonies are washed with 0.9% saline solution, stained with 0.5% crystal violet in ethanol, and counted.

Data set [5] deals with T1, human alkyltransferase. Particulars: previously published, read-out: ED50 for inactivation of alkyltransferase, cited from earlier work.
Setting [6] is: +DNA (10 μg calf thymus DNA), 30 min at 37° C, read-out: ED50 for inactivation of alkyltransferase.
Setting [7] is: absence of DNA, read-out: ED50 value in the absence of DNA.

Where two headings read alike, the source gives them in different places.

For `Nc1nc(OCc2ccccc2)c2ncn([C@H]3CC(OC(=O)CC[C@H](NC(=O)c4ccc(NCc5cnc6nc(N)[nH]c(=O)c6n5)cc4)C(=O)O)[C@@H](CO)O3)c2n1` (stereo partly shown) [Compound 1, O^6-Benzyl-3′-O-[γ-folyl]-2′-deoxyguanosine], the “release of folate by extracts from human tumor cells” value (“release of folate by extracts” below) in data set [1] is “able to release folate”. Further, the “rate of release of folate” value in data set [2] is recorded as “about 2.2 % per day”. The EC50 in data set [3] (setting [6]) is 680 nM. For the same compound, in data set [3] (absence of DNA), the “ED50 lower than O^6-benzylguanine” value is 10 times and the “ED50 lower than the parent O^6-benzyl-2′-deoxyguanosine” value is recorded as 100 times. Also, in data set [3] (setting [7]), the EC50 came to 16 nM. Also, in data set [3], the “inactivation of alkyltransferase compared with parent compound” value is listed as “more active than O^6-benzyl-2′-deoxyguanosine itself”. For the same compound, the “sensitization of HT29 cells to killing by BCNU” value in data set [4] is reported as “able to sensitize HT29 cells to killing by BCNU”.
For the compound `Nc1nc(OCc2ccccc2)c2ncn([C@H]3CC(O)[C@@H](COC(=O)CC[C@H](NC(=O)c4ccc(NCc5cnc6nc(N)[nH]c(=O)c6n5)cc4)C(=O)O)O3)c2n1` (stereo partly shown) [Compound 2, O^6-Benzyl-5′-O-[γ-folyl]-2′-deoxyguanosine], the “release of folate by extracts” value in data set [1] was “able to release folate”. Moreover, in data set [2], the “rate of release of folate” value is recorded as roughly 3.2 % per day. Further, the EC50 in data set [3] (setting [6]) is 3060 ± 180 nM; in data set [3] (setting [7]), 640 nM. For the same compound, the “increase of ED50 when DNA is present” value in data set [3] (+DNA versus −DNA) is listed as 5 fold. Besides, the “inactivation of alkyltransferase compared with parent compound” value in data set [3] was “more active than O^6-benzyl-2′-deoxyguanosine itself”. Besides, the “sensitization of HT29 cells to killing by BCNU” value in data set [4] is reported as “able to sensitize HT29 cells to killing by BCNU”.
Consider `Nc1nc(OCc2ccc(COC(=O)CC[C@H](NC(=O)c3ccc(NCc4cnc5nc(N)[nH]c(=O)c5n4)cc3)C(=O)O)cc2)c2nc[nH]c2n1` [Compound 3, O^6-[4-[(γ-folyl)-oxymethyl]benzyl]guanine], for which, in data set [1], the “release of folate by extracts” value was “able to release folate”. Also, in data set [2], the “rate of release of folate” value is reported as roughly 0.9 % per day. For the same compound, the EC50 amounted to 240 nM in data set [3] (setting [6]) and 700 nM in data set [3] (−DNA (hemocyanin), 30 min at 37° C, read-out: ED50 for inactivation of alkyltransferase). The “inactivation of alkyltransferase compared with parent compound” value in data set [3] is given as “slightly less effective than the free base parent”.
Regarding `Nc1nc(OCc2ccccc2)c2ncn([C@H]3C[C@H](O)[C@@H](CO)O3)c2n1` [O^6-benzyl-2′-deoxyguanosine], the EC50 in data set [5] (+DNA) was 40 µM; in data set [5] (−DNA), 2 µM.
